Laboratory results from patent publication US12491170B2, “Stable treprostinil prodrugs” (United Therapeutics Corporation, priority 2020, dated 2025).
Like-named read-outs stand apart in the source and are kept apart here.

Tests used:
[1] = Stability in liver microsomes, rat
[2] = Stability in liver microsomes, dog
[3] = Stability in cryopreserved hepatocytes, human; conditions: for AUC: human
[4] = Stability in cryopreserved hepatocytes, dog; conditions: for AUC: dog
[5] = dog
[6] = Stability in liver microsomes, human; conditions: for AUC: human
[7] = Stability in cryopreserved hepatocytes, rat; conditions: for AUC: rat
[8] = rat

Structure (SMILES) | Trep Concentration 0 min [1] [µM] | Trep Concentration 10 min [1] [µM] | Trep Concentration 20 min [1] [µM] | Trep Concentration 30 min [1] [µM] | Trep Concentration 60 min [1] [µM] | Trep Concentration 0 min [2] [µM] | Trep Concentration 10 min [2] [µM] | Trep Concentration 20 min [2] [µM] | Trep Concentration 30 min [2] [µM] | Trep Concentration 60 min [2] [µM] | Trep Concentration (μM) 0 min [3] [µM] | Trep Concentration (μM) 15 min [3] [µM] | Trep Concentration (μM) 30 min [3] [µM] | Trep Concentration (μM) 60 min [3] [µM] | Trep Concentration (μM) 120 min [3] [µM] | AUC [3] [µmol·min/L] | Trep Concentration (μM) 0 min [4] [µM] | Trep Concentration (μM) 15 min [4] [µM] | Trep Concentration (μM) 30 min [4] [µM] | Trep Concentration (μM) 60 min [4] [µM] | other results
CCCCCC(CCC1C(O)CC2Cc3c(cccc3OCC(=O)O)CC21)Oc1ccccc1C(=O)O (stereo not drawn) [LVI] | 0 | 0 | 0 | 0 | 0 | 0 | 0 | 0.003 | 0 | 0 | 0 | 0 | 0 | 0 | 0 | 0.00 | 0 | 0.005 | 0.005 | 0.003 | Trep Concentration (μM) 120 min [4]: 0 µM; AUC [4]: 0.00 µmol·min/L; AUC [5]: 0.00 µmol·min/L; Trep Concentration 0 min [6]: 0 µM; Trep Concentration 10 min [6]: 0 µM; Trep Concentration 20 min [6]: 0 µM; Trep Concentration 30 min [6]: 0 µM; Trep Concentration 60 min [6]: 0 µM; AUC [6]: 0.00 µmol·min/L; Trep Concentration (μM) 0 min [7]: 0 µM; Trep Concentration (μM) 15 min [7]: 0 µM; Trep Concentration (μM) 30 min [7]: 0 µM; Trep Concentration (μM) 60 min [7]: 0 µM; Trep Concentration (μM) 120 min [7]: 0 µM; AUC [7]: 0.00 µmol·min/L; AUC [8]: 0.00 µmol·min/L
CCCCCC(CCC1C(O)CC2Cc3c(cccc3OCC(=O)O)CC21)OCCN1CCOCC1 (stereo not drawn) [L] | 0.00345 | 0.00356 | 0.00419 | 0.00488 | 0.00552 | 0.00302 | 0.00333 | 0.00398 | 0.00409 | 0.00389 | 0.00177 | 0.00195 | 0.00202 | 0.00194 | 0.00197 | 0.23 | 0.00247 | 0.00312 | 0.0106 | 0.00355 | Trep Concentration (μM) 120 min [4]: 0.00568 µM; AUC [4]: 0.63 µmol·min/L; AUC [5]: 0.23 µmol·min/L; Trep Concentration 0 min [6]: 0.00327 µM; Trep Concentration 10 min [6]: 0.00286 µM; Trep Concentration 20 min [6]: 0.00309 µM; Trep Concentration 30 min [6]: 0.00264 µM; Trep Concentration 60 min [6]: 0.00244 µM; AUC [6]: 0.17 µmol·min/L; Trep Concentration (μM) 0 min [7]: 0 µM; Trep Concentration (μM) 15 min [7]: 0.00347 µM; Trep Concentration (μM) 30 min [7]: 0.00366 µM; Trep Concentration (μM) 60 min [7]: 0.00352 µM; Trep Concentration (μM) 120 min [7]: 0.0034 µM; AUC [7]: 0.39 µmol·min/L; AUC [8]: 0.28 µmol·min/L
CCCCC[C@H]1CC[C@@H]2[C@H]3Cc4cccc(OCC(=O)O)c4C[C@H]3C[C@H]2OC(=O)O1 [XXIV] | 0.779 | 0.791 | 0.79 | 0.802 | 0.681 | 0.892 | 0.975 | 0.948 | 0.945 | 0.86 | 0.041 | 0.228 | 0.264 | 0.312 | 0.328 | 33.55 | 0.0779 | 0.461 | 0.438 | 0.349 | Trep Concentration (μM) 120 min [4]: 0.296 µM; AUC [4]: 41.94 µmol·min/L; AUC [5]: 55.49 µmol·min/L; Trep Concentration 0 min [6]: 0.326 µM; Trep Concentration 10 min [6]: 0.342 µM; Trep Concentration 20 min [6]: 0.341 µM; Trep Concentration 30 min [6]: 0.326 µM; Trep Concentration 60 min [6]: 0.23 µM; AUC [6]: 18.43 µmol·min/L; Trep Concentration (μM) 0 min [7]: 0.365 µM; Trep Concentration (μM) 15 min [7]: 0.581 µM; Trep Concentration (μM) 30 min [7]: 0.531 µM; Trep Concentration (μM) 60 min [7]: 0.482 µM; Trep Concentration (μM) 120 min [7]: 0.431 µM; AUC [7]: 58.02 µmol·min/L; AUC [8]: 45.96 µmol·min/L
